Measured values taken from publication PMC11602622, “Evolution of queen pheromone receptor tuning in four honeybee species (Hymenoptera, Apidae, Apis)” (iScience, 2024).
Changes are numbered by the printed parent chain.

Key:
AmelOR11 = biological target: T1, AmelOR11 (Apis mellifera, UniProt A0A7M6UWX0); test: transcuticular GCaMP6m calcium imaging of Drosophila antenna, dose-response; assay type: cell-based; details: agonist; airborne odorant, unit is dose loaded on filter paper, not a concentration; 1 s stimulus; solvent 2-propanol
T1 construct: gene Or11; full-length ORF, Drosophila codon-optimized synthetic gene (pUAST.attB, locus 51C); expressed in Drosophila at1 OSNs in place of DmelOR67d, with endogenous fly Orco and GCaMP6m; same length as the other OR11
T1 sequence (A0A7M6UWX0 1-394): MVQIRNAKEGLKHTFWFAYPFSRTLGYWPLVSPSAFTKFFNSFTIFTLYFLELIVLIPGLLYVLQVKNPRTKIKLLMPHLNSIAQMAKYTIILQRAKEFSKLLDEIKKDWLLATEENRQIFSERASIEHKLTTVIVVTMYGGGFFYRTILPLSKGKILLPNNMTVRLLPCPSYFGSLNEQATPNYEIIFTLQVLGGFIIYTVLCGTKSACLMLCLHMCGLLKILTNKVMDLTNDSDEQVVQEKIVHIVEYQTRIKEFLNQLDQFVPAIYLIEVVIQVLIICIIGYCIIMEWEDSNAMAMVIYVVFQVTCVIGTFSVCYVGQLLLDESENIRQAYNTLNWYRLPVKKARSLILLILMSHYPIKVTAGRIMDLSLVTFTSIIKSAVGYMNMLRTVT

AcerOR11 [1] = biological target: T2, AcerOR11 (Apis cerana, UniProt A0A3G2FPT9); test: as above; assay type: cell-based; details: agonist; airborne odorant, unit is dose loaded on filter paper, not a concentration; 1 s stimulus; solvent 2-propanol
T2 construct: full-length ORF, Drosophila codon-optimized synthetic gene (pUAST.attB, locus 51C); expressed in Drosophila at1 OSNs in place of DmelOR67d, with endogenous fly Orco and GCaMP6m; same length as the other OR11
T2 sequence (A0A3G2FPT9 1-394): T1 sequence (A0A7M6UWX0 1-394) with F36V, T47I, F50L, E52Q, P69A, L112I, V228I, M229V, V239I, K345N

AdorOR11 = tested on: T3, AdorOR11; test: as above; assay type: cell-based, Apis dorsata; details: agonist; airborne odorant, unit is dose loaded on filter paper, not a concentration; 1 s stimulus; solvent 2-propanol
T3 construct: gene OR11; full-length ORF, Drosophila codon-optimized synthetic gene (pUAST.attB, locus 51C); expressed in Drosophila at1 OSNs in place of DmelOR67d, with endogenous fly Orco and GCaMP6m; same length as the other OR11

AcerOR11 [2] = biological target: T2, AcerOR11; test: transcuticular GCaMP6m calcium imaging of Drosophila antenna, single-dose screen; assay type: cell-based; details: agonist; 100 μg on filter paper; 1 s stimulus; solvent 2-propanol
AflorOR11 = tested on: T4, AflorOR11; test: transcuticular GCaMP6m calcium imaging of Drosophila antenna, dose-response; assay type: cell-based, Apis florea; details: agonist; airborne odorant, unit is dose loaded on filter paper, not a concentration; 1 s stimulus; solvent 2-propanol
T4 construct: gene OR11; full-length ORF, Drosophila codon-optimized synthetic gene (pUAST.attB, locus 51C); expressed in Drosophila at1 OSNs in place of DmelOR67d, with endogenous fly Orco and GCaMP6m; same length as the other OR11

Row | SMILES | EC50 (AmelOR11) | EC50 (AcerOR11 [1]) | EC50 (AdorOR11) | calcium response (ΔF/F0) (AcerOR11 [2]) | EC50 (AflorOR11)
1 | CCCC(=O)C(=O)O [2-oxovaleric acid] | 84.26 ± 15.52 µg | 208.5 ± 39.57 µg | 139.3 ± 28.55 µg | – | –
2 | CC(=O)CCC=C(C)C [6-methyl-5-hepten-2-one] | – | – | – | AcerOR11 responded to a third secondary ligand: 6-methyl-5-hepten-2-one | –
3 | CC(=O)CCCCC/C=C/C(=O)O [9-ODA, 9-oxo-(E)-2-decenoic acid] | 160.5 ± 28.46 µg | 174.8 ± 26.05 µg | 173.4 ± 22.22 µg | – | 175.8 ± 29.59 µg
4 | CCC/C=C/C(=O)O [trans-2-hexenoic acid] | 239.2 ± 72.06 µg | 105.8 ± 9.62 µg | 124.2 ± 9.58 µg | – | –
